Experimental data as given in patent US6472430B2, “Amino thioxomethyl amino oxyacetic acid derivatives” (priority 2000, dated 2002).

Assays:
Male Sprague-Dawley rats = experiment: Determination of serum HDL cholesterol in cholesterol/cholic acid-fed rats; assay type: in vivo, rat; settings: dose of 100 mg/kg mixed in diet, eight days, six rats per group, diet with 0.25% cholic acid and 1.0% cholesterol, serum HDL cholesterol by FPLC; for change in vivo at 100 mg/kg: Rattus norvegicus, feed or water, 192 h, read-out: HDL Cholesterol Level Increase (%)
Description: The ability of the compounds of this invention to increase blood serum HDL levels was evaluated by the following standard experimental procedure for determination of HDL cholesterol:
Male Sprague-Dawley rats weighing 200-225 g were housed two per cage and fed Purina Rodent Chow Special Mix 5001-S supplemented with 0.25% cholic acid and 1.0% cholesterol and water ad libitum for 8 days. Each test substance was administered to a group of six rats fed the same diet with the test diet mixed in as 0.005-0.1% of the total diet. Body weight and food consumption were recorded prior to diet administration and at termination. Typical doses of the test substances are 5-100 mg/kg/day.
At termination, blood was collected from anesthetized rats and the serum was separated by centrifugation. Total serum cholesterol was assayed using the Sigma Diagnostics enzymatic kit for the determination of cholesterol, Procedure No. 352, modified for use with ninety-six well microtiter plates. After reconstitution with water the reagent contained 300 U/l cholesterol oxidase, 100 U/l cholesterol esterase, 1000 U/l horseradish peroxidase, […] p-hydroxybenzenesulfonate in a pH 6.5 buffer. In the reaction cholesterol is oxidized to produce hydrogen peroxide which is used to form a quinoneimine dye. The concentration of dye formed is measured spectrophotometrically by absorbence at 490 nm after incubation at 25° C. for 30 minutes. The concentration of cholesterol was determined for each serum sample relative to a commercial standard from Sigma.
HDL cholesterol concentrations in serum were determined by separation of lipoprotein classes by fast protein liquid chromatography (FPLC) by a modification of the method of Kieft et al., J. Lipid Res., 32 (1991) 859-866. 25 ul of serum was injected onto Superose 12 and Superose 6 (Pharmacia), in series, with a column buffer of 0.05 M Tris (2-amino-2-hydroxymethyl-1,3-propanediol) and 0.15 M sodium chloride at a flow rate of 0.5 ml/min. The eluted sample was mixed on line with Boehringer-Mannheim cholesterol reagent pumped at 0.2 ml/min. The combined eluents were mixed and incubated on line through a knitted coil (Applied Biosciences) maintained at a temperature of 45° C. The eluent was monitored by measuring absorbance at 490 nm and gave a continuous absorbance signal proportional to the cholesterol concentration. The relative concentration of each lipoprotein class was calculated as the per cent of total absorbency. HDL cholesterol concentration, in serum, was calculated as the per cent of total cholesterol as determined by FPLC multiplied by the total serum cholesterol concentration.
Test compounds were administered at a dose of 100 mg/kg. Each test substance was administered to a group of six rats. The duration of treatment was eight days.

Q: For “Ethyl [[methyl[[(2-(1-methylethyl)phenyl]amino]thioxomethyl]methylamino]oxy]acetate [Example 4]”, which “HDL Cholesterol Level Increase (%)” value (Male Sprague-Dawley rats) is on record?
A: 104%

Q: For `CCOC(=O)CON(C)C(=S)Nc1ccc(Oc2ccccc2)cc1` [Example 7, Ethyl [[[[(4-phenoxyphenyl)amino]thioxomethyl]methylamino]oxy]acetate], which change in vivo at 100 mg/kg (Male Sprague-Dawley rats) is on record?
A: 35%

Q: Which change in vivo at 100 mg/kg (Male Sprague-Dawley rats) does the source give for `CCOC(=O)CON(C(=S)Nc1cc(Cl)ccc1C)C(C)CC` (stereo not drawn) [Example 10, Ethyl [[[[(5-Chloro-2-methylphenyl)amino]thioxomethyl](1-methylpropyl)amino]oxy]acetate] here?
A: 39%

Q: Which melting point does the source give for `CCOC(=O)CON(C)C(=S)Nc1cc(Cl)ccc1C` [Example 1, Ethyl [[[[(5-Chloro-2-methylphenyl)amino]thioxomethyl]methylamino]oxy]acetate] here?
A: 83 to 84 °C

Q: What about the change in vivo at 100 mg/kg (Male Sprague-Dawley rats) of the same compound?
A: 118%

Q: Which change in vivo at 100 mg/kg (Male Sprague-Dawley rats) does the source give for `CCOC(=O)CON(C)C(=S)Nc1cc(C)ccc1C` [Example 5, Ethyl [[[[(2,5-dimethylphenyl)amino]thioxomethyl]methylamino]oxy]acetate] here?
A: 40%

Q: Which melting point does the source give for `CCOC(=O)CON(C(=S)Nc1cc(Cl)ccc1C)C(C)C` [Example 9, Ethyl [[[[(5-Chloro-2-methylphenyl)amino]thioxomethyl](1-methylethyl)amino]oxy]acetate] here?
A: 83 to 85 °C

Q: And the change in vivo at 100 mg/kg (Male Sprague-Dawley rats)?
A: 46%

Q: For `CCOC(=O)CON(C)C(=S)NCC(C)C` [Example 6, Ethyl [[[[(2-methylpropyl)amino]thioxomethyl]methylamino]oxy]acetate], which change in vivo at 100 mg/kg (Male Sprague-Dawley rats) is on record?
A: 17%

Q: With `CCOC(=O)CON(CC)C(=S)Nc1ccc(Cl)cc1C` [Example 8, Ethyl [[[[(4-Chloro-2-methylphenyl)amino]thioxomethyl]ethylamino]oxy]acetate] as the compound, how does the melting point read?
A: 69 to 71 °C

Q: What about the change in vivo at 100 mg/kg (Male Sprague-Dawley rats) of the same compound?
A: 90%

Q: For `CCOC(=O)CON(C)C(=S)Nc1ccc(Cl)cc1C` [Example 2, Ethyl [[[[(4-Chloro-2-methylphenyl)amino]thioxomethyl]methylamino]oxy]acetate], which melting point is on record?
A: 104 to 106 °C

Q: What about the change in vivo at 100 mg/kg (Male Sprague-Dawley rats) of the same compound?
A: 62%

Q: For `CCOC(=O)CON(C)C(=S)Nc1ccc2c(c1)CCC2` [Example 3, Ethyl [[[[(2,3-dihydro-1H-inden-5-yl)amino]thioxomethyl]methylamino]oxy]acetate], which melting point is on record?
A: 69 to 71 °C

Q: What about the change in vivo at 100 mg/kg (Male Sprague-Dawley rats) of the same compound?
A: 146%
